The values below come from patent US20230227466A1, “SUBSTITUTED THIENOPYRIMIDINES THAT INTERACT WITH THE RAS SUPERFAMILY FOR THE TREATMENT OF CANCERS, INFLAMMATORY DISEASES, RASOPATHIES, AND FIBROTIC DISEASE” (SHY Therapeutics, LLC, priority 2020, published 2023).

Usually IC50 stands for the concentration that inhibits the measured activity by half. A higher IC50 goes with weaker potency.

The target in one test is KRas wild type (Homo sapiens, UniProt P01116). Kind of test: Ras GTP binding domain inhibition assay (labeled-GTP competition, cell-free). Also on record: made in house. In a few lines:
(§1)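 First, the His-tagged protein was captured overnight at 4° C on nickel wells. Second, compound was applied at 20 μM or as a dilution series for IC50 over 3 h. Third, 100 nM Cy3- or Cy5-GTP was added for 45 min. Finally, wells were washed and bound label quantified.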

The target in another test is Rho-A (Homo sapiens, UniProt P61586). The test is described as above. Also on record: made in house. In a few lines:
as §1

In the next test the target is Rac-1 (Homo sapiens, UniProt P63000). The description is as above. Also noted: made in house. In outline: as §1
In test [1] the test system is Akt phosphorylation in Panc-1 cells. Put plainly: Western AKT cell-based phosphorylation assay. Also noted: species or system human. The following applies: at 10 μM, values in brackets < > are activation %, not inhibition. In a few lines:
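Phospho-Akt (Ser473) western blot of Panc-1 lysates, with Ponceau S to confirm uniform loading. Before lysis, cells were serum-starved overnight (0.5% FBS), incubated 6 h at 37° C with 10 μM compound in 0.3% DMSO and stimulated 15 min with 1.5 ng/ml EGF.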

The subject of test [2] is MIA-PaCa-2 pancreatic cancer cell line (KRAS G12C). Put plainly: Cell proliferation assay (CellTiter 96 Aqueous One). In kind it is cell-based. The following applies: Homo sapiens; for IC50: MIA PaCa-2, MIA PaCa-2; for inhibition at 10 µM: MIA PaCa-2, read-out: % inh cell proliferation (10 μM) in MIA PaCa-2. In a few lines:
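Read-out is MTS-based viability (CellTiter 96 Aqueous One) after 2–4 days of compound exposure at 37 °C in 10% FBS with 0.3% DMSO.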

For a further test, the target named is T1, KRas G12C mutant (Homo sapiens, UniProt P01116, G12C).
T1 construct: made in house
Kind of test: Ras GTP binding domain inhibition assay (labeled-GTP competition, cell-free). In a few lines:
as §1

The target of another test is T2, KRas Q61H mutant (Homo sapiens, UniProt P01116, Q61H).
T2 construct: made in house
Described as above. The conditions noted are these: at 20 μM. In outline:
as §1

The next test has as its target T3, KRas G12D mutant (Homo sapiens, UniProt P01116, G12D).
T3 construct: made in house
The test is described as above. In a few lines: as §1

[3] abbreviates: with SOS, read-out: KRas wild type + SOS: % inh.
The mark [4] stands for this setting: without SOS, read-out: KRas wild type: % inh.
Setting [5] is: without SOS, read-out: Rho-A: % inh.
[6] abbreviates: without SOS, read-out: Rac-1: % inh.
[7] abbreviates: with SOS, read-out: KRas G12C mutant + SOS: % inh.
Where [8] appears, read: without SOS, read-out: KRas G12C mutant: % inh.
Setting [9] is: with SOS, read-out: KRas Q61H mutant + SOS: % inh.
The mark [10] stands for this setting: without SOS, read-out: KRas Q61H mutant: % inh.
Where [11] appears, read: with SOS, read-out: KRas G12D mutant + SOS: % inh.
Where [12] appears, read: without SOS, read-out: KRas G12D mutant: % inh.

Structures are written as SMILES. Where two headings read alike, the source gives them in different places.

For `COc1nc(-c2nccn2C)nc2c(-c3ncccc3F)csc12` [Compound 95, 7-(3-Fluoropyridin-2-yl)-4-methoxy-2-(1-methyl-1H-imidazol-2-yl)thieno[3,2-d]pyrimidine], the inhibition at 20 µM fell in the range of 76 to 100% at KRas wild type (setting [3]); 76 to 100% at KRas wild type (setting [4]); 76 to 100% at Rho-A (with SOS, read-out: Rho-A + SOS: % inh.); 76 to 100% at Rho-A (setting [5]); 76 to 100% at Rac-1 (with SOS, read-out: Rac-1 + SOS: % inh.); 76 to 100% on Rac-1 (setting [6]). Moreover, the inhibition at 20 µM at KRas G12C mutant (setting [7]), at KRas G12C mutant (setting [8]), on KRas Q61H mutant (setting [9]), on KRas Q61H mutant (setting [10]), on KRas G12D mutant (setting [11]) and on KRas G12D mutant (setting [12]) was 76 to 100% each time. Also, in test [1], the “% inh of AKT phosphorylation in PANC-1” value is on record as 0 (0% inhibition). The IC50 in test [2] is > 10 µM. Also, the inhibition at 10 µM in test [2] turned out to be 0%.
With `COc1ccn2c(-c3nc(O)c4scc(-c5ccccn5)c4n3)ncc2c1` [Compound 85, 2-(7-Methoxyimidazo[1,5-a]pyridin-3-yl)-7-(pyridin-2-yl)thieno[3,2-d]pyrimidin-4-ol], the inhibition at 20 µM fell in the range of 1 to 25% at KRas wild type (setting [3]); 51 to 75% on KRas wild type (setting [4]); 51 to 75% at Rho-A (setting [5]); 51 to 75% at Rac-1 (setting [6]); 1 to 25% on KRas G12C mutant (setting [7]); 26 to 50% on KRas G12C mutant (setting [8]). In addition, the inhibition at 20 µM lay within 26 to 50% on KRas Q61H mutant (setting [9]), 51 to 75% on KRas Q61H mutant (setting [10]), 26 to 50% on KRas G12D mutant (setting [11]) and 51 to 75% on KRas G12D mutant (setting [12]). Further, the “% inh of AKT phosphorylation in PANC-1” value in test [1] was 0 (0% inhibition). This compound yielded an IC50 in test [2] of 5 to 10 µM. For the same compound, in test [2], the inhibition at 10 µM fell in the range of 51 to 75%.
In the case of `COc1ccc2cnc(-c3nc(O)c4scc(-c5ccccn5)c4n3)n2c1` [Compound 86, 2-(6-Methoxyimidazo[1,5-a]pyridin-3-yl)-7-(pyridin-2-yl)thieno[3,2-d]pyrimidin-4-ol], the inhibition at 20 µM at KRas wild type (setting [3]) was 26 to 50%; at KRas wild type (setting [4]), 51 to 75%; on Rho-A (setting [5]), 51 to 75%; on Rac-1 (setting [6]) it was 51 to 75%; at KRas G12C mutant (setting [7]), 26 to 50%; on KRas G12C mutant (setting [8]) it was 26 to 50%. Moreover, the inhibition at 20 µM was in the range of 51 to 75% on KRas Q61H mutant (setting [9]), 26 to 50% at KRas Q61H mutant (setting [10]), 51 to 75% on KRas G12D mutant (setting [11]) and 51 to 75% at KRas G12D mutant (setting [12]). Also, the “% inh of AKT phosphorylation in PANC-1” value in test [1] was “B (26-50% inhibition)”. In test [2], this compound yielded an IC50 of 5 to 10 µM. Further, the inhibition at 10 µM in test [2] lay within 51 to 75%.
